The results in this text go back to patent publication US20220340547A1, “INDOLE DERIVATIVE-CONTAINING INHIBITOR, PREPARATION METHOD THEREFOR AND APPLICATION THEREOF” (Shanghi Hansoh Biosoh Biomedical Co., Ltd., priority 2019, published 2022).

Structures are written as SMILES. pIC50: −log10 of the molar value.

Sequence of EGFR D770_N771insNPG (P00533 with tags, fused parts or gaps INS770NPG limits assumed): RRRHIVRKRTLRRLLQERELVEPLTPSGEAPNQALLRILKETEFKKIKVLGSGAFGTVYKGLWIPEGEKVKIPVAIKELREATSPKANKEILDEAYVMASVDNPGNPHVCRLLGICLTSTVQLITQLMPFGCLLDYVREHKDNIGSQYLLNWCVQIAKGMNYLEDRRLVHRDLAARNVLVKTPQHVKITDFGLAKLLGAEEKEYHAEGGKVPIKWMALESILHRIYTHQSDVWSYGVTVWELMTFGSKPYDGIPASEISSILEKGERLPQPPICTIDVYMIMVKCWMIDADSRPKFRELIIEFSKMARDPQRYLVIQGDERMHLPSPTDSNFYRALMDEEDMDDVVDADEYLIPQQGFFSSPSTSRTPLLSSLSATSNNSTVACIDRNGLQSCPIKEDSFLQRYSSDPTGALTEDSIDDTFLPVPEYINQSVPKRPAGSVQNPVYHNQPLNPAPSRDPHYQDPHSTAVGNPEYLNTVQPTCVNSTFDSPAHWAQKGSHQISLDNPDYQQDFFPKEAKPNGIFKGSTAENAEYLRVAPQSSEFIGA

The first assay has as its target EGFR D770_N771insNPG (Homo sapiens, UniProt P00533, INS770NPG). The experiment in a line: TR-FRET inhibition of kinase activity of EGFR exon 20 insertion mutation. The assay is classed as biochemical.
Conditions: not given
From the text:
Determination of the Inhibitory Effect of the Compound of the Present Invention on the Kinase Activity of EGFR Exon 20 Insertion Mutation
Experimental objective: The objective of this test example is to determine the inhibitory effect of the compound on the kinase activity of EGFR exon 20 insertion mutation.
Experimental process: The experiment applied the TR-FRET (time-resolved fluorescence resonance energy transfer) method to study the inhibitory effect of the compound on the kinase activity of EGFR exon 20 insertion mutation. The experiment was carried out in a 384-well plate. Experimental buffer (50 mM HEPES, 1 mM EGTA, 10 mM MgCl2, 2 mM DTT, 0.01% Tween-20) was formulated. The compound was diluted in gradient to different concentrations with the experimental buffer. 2.5 μL of the solution was added to each well of the 384-well plate. 2.5 μL of diluted EGFR kinase solution (0.001-0.5 nM) was added, and the plate was incubated at room temperature for 10 minutes. 5 μL of ULight-poly GT/ATP mixed solution was added, and the plate was incubated at room temperature for 30 to 60 minutes. 5 μL of EDTA stop solution and 5 μL of Eu-labeled antibody detection solution were added, and the plate was incubated at room temperature for 1 hour.
(§1) Experimental Data Processing Method:
The concentration and inhibition rate were fitted to a nonlinear regression curve by Graphpad Prism software to obtain the IC50 value.
In general terms: Time-resolved FRET reads energy transfer from a long-lived donor to a nearby acceptor.
Regarding `C=CC(=O)Nc1cc(Nc2ncc(C(=O)OC(C)C)c(-c3cn(C)c4ccccc34)n2)c(OC)cc1N1CC2(CN(C)C2)C1` [Example 26, Isopropyl 2-((5-acrylamido-2-methoxy-4-(6-methyl-2,6-diazaspiro[3.3]heptan-2-yl)phenyl)amino)-4-(1-methyl-1H-indol-3-yl)pyrimidine-5-carboxylate], the pIC50 is 9.44.

In turn, `C=CC(=O)Nc1cc(Nc2ncc(C(=O)OC(C)C)c(-c3cn(C)c4ccccc34)n2)c(OC)cc1N1C[C@H]2CN(C)C[C@H]2C1` [Example 63, Isopropyl 2-((5-acrylamido-2-methoxy-4-((3aR,6aS)-5-methylhexahydropyrrolo[3,4-c]pyrrol-2(1H)-yl)phenyl)amino)-4-(1-methyl-1H-indol-3-yl)pyrimidine-5-carboxylate] showed a pIC50 of 9.21.

With `C=CC(=O)Nc1cc(Nc2ncc(C#N)c(-c3cn(C4CC4)c4ccccc34)n2)c(OC)cc1N1CC(N(C)C)C1` [Example 74, N-(5-((5-Cyano-4-(1-cyclopropyl-1H-indol-3-yl)pyrimidin-2-yl)amino)-2-(3-(dimethylamino)azetidin-1-yl)-4-methoxyphenyl)acrylamide], the pIC50 is 9.19.

In the case of `C=CC(=O)Nc1cc(Nc2ncc(C#N)c(-c3cn(C4CC4)c4ccccc34)n2)c(OC)cc1N1CC[C@H](N(C)C)C1` [Example 77, (S)—N-(5-((5-cyano-4-(1-cyclopropyl-1H-indol-3-yl)pyrimidin-2-yl)amino)-2-(3-(dimethylamino)pyrrolidin-1-yl)-4-methoxyphenyl)acrylamide], the pIC50 is 9.04.

As to `C=CC(=O)Nc1cc(Nc2ncc(C#N)c(-c3cn(C4CC4)c4ccccc34)n2)c(OC)cc1N1C[C@@H]2CCN(C)[C@@H]2C1` [Example 110, N-(5-((5-Cyano-4-(1-cyclopropyl-1H-indol-3-yl)pyrimidin-2-yl)amino)-4-methoxy-2-((3aS,6aS)-1-methylhexahydropyrrolo[3,4-b]pyrrol-5(1H)-yl)phenyl)acrylamide], the pIC50 was 9.28.

`C=CC(=O)Nc1cc(Nc2ncc(C#N)c(-c3cn(C4CC4)c4ccccc34)n2)c(OC)cc1OCCN(C)C` [Example 113, N-(5-((5-Cyano-4-(1-cyclopropyl-1H-indol-3-yl)pyrimidin-2-yl)amino)-2-(2-(dimethylamino)ethoxy)-4-methoxyphenyl)acrylamide]: the pIC50 is 9.15.

`C=CC(=O)Nc1cc(Nc2ncc(C#N)c(-c3cn(C4CC4)c4ncccc34)n2)c(OC)cc1N(C)CCN(C)C` [Example 139, N-(5-((5-Cyano-4-(1-cyclopropyl-1H-pyrrolo[2,3-b]pyridin-3-yl)pyrimidin-2-yl)amino)-2-((2-(dimethylamino)ethyl)(methyl)amino)-4-methoxyphenyl)acrylamide] had a pIC50 of 9.17.

Another assay deals with Ba/F3 EGFR-D770-N771ins_SVD (Homo sapiens, UniProt P00533, DUP768-770, cells depend on it). The experiment in a line: Proliferation of Ba/F3 EGFR mutant cell line (CellTiter-Glo). The assay is classed as cell-based, mouse. The following applies: 72 h to 144 h, read-out: Ba/F3 EGFR-D770-N771ins_SVD IC50. Here is the method: Determination of the Inhibitory Effect of the Compound of the Present Invention on the Proliferation of Ba/F3 EGFR Mutant Cell Line and A431 Cell Line
Sequence of Ba/F3 EGFR-D770-N771ins_SVD (P00533 with tags, fused parts or gaps DUP768-770): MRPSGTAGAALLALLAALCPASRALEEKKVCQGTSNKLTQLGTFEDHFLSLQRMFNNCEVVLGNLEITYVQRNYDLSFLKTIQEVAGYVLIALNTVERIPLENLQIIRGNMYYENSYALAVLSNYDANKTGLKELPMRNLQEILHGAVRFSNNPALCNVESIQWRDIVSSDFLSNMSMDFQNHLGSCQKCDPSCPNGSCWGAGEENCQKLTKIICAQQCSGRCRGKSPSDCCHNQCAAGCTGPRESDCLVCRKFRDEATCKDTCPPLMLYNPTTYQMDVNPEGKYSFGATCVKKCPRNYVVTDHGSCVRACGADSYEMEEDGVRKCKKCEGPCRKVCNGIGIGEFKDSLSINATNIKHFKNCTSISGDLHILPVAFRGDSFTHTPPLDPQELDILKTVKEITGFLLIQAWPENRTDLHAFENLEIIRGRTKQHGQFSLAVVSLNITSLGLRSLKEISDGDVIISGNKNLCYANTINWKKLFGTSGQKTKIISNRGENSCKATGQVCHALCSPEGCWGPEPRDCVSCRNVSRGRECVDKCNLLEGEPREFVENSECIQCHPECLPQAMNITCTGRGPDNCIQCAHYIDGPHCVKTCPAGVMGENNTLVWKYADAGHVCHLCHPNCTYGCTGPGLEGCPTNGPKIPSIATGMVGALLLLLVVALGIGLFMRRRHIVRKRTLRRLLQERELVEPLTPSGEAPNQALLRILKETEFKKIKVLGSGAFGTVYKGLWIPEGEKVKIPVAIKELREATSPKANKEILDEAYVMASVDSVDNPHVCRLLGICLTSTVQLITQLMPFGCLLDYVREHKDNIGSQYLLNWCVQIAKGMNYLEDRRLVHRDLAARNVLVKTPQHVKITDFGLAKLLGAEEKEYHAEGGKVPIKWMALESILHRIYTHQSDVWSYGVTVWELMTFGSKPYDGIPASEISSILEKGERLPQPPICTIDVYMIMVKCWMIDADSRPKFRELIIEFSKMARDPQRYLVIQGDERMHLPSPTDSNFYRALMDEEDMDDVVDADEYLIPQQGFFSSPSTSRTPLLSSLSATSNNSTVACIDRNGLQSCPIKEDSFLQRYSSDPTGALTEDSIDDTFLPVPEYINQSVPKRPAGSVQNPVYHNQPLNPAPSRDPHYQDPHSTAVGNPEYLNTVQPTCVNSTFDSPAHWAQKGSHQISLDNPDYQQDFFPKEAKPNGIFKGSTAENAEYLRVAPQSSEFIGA
Experimental objective: The objective of this test example is to determine the inhibitory effect of the compound on the proliferation of Ba/F3 EGFR mutant cell line and A431 cell line
Experimental instruments: Microplate reader (BioTek Synergy H1), pipette (Eppendorf & Rainin).
Ba/F3 EGFR mutant cells were cultured, and harvested after reaching a suitable density. The cells were adjusted to an appropriate cell concentration with the complete medium. The cell suspension were spread on a 96-well plate (90 μL per well), and the plate was placed in a 37° C., 5% CO2 incubator overnight to let the cells adhere to the wall. Solutions of the compound at different concentrations were formulated with DMSO and culture medium. Solvent control was set. […] CellTiter-Glo solution was added and mixed well by shaking, and the plate was incubated in the dark for 10 minutes. The values were measured by BioTek Synergy H1 microplate reader.
as §1
The inhibition rate was calculated using the […] signal value. The concentration and inhibition rate were fitted to a nonlinear regression curve by Graphpad Prism software to obtain the IC50 value.
(In ATP-based viability assays light output follows the ATP content of the culture.)
As to `C=CC(=O)Nc1cc(Nc2ncc(-c3ccc(F)cc3F)c(-c3cn(C4CC4)c4ccccc34)n2)c(OC)cc1N1C[C@H]2CN(C)C[C@H]2C1` [Example 69, N-(5-((4-(1-Cyclopropyl-1H-indol-3-yl)-5-(2,4-difluorophenyl)pyrimidin-2-yl)amino)-4-methoxy-2-((3aR,6aS)-5-methylhexahydropyrrolo[3,4-c]pyrrol-2(1H)-yl)phenyl)acrylamide], the GI50 was 40 nM.

Turning to `C=CC(=O)Nc1cc(Nc2ncc(-c3ccnn3C)c(-c3cn(C4CC4)c4ccccc34)n2)c(OC)cc1N1C[C@H]2CN(C)C[C@H]2C1` [Example 70, N-(5-((4-(1-Cyclopropyl-1H-indol-3-yl)-5-(1-methyl-1H-pyrazol-5-yl)pyrimidin-2-yl)amino)-4-methoxy-2-((3aR,6aS)-5-methylhexahydropyrrolo[3,4-c]pyrrol-2(1H)-yl)phenyl)acrylamide], the GI50 was 47.4 nM.

A word on the pIC50: it is −log10 of the IC50, conventionally taken in molar units.
